The supplement of paper PMC10307832

Experiments:
Test in all cases: relative viability (nuclei count vs DMSO), 5 days (fraction); higher = more cells survive
[1] = compound: O[C@H]1CC[C@H](Nc2ncc3nc(Nc4c(F)cc(F)cc4F)n([C@H]4CCOC4)c3n2)CC1 [Tanzisertib] + COc1cc2c(Oc3ccc(NC(=O)C4(C(=O)Nc5ccc(F)cc5)CC4)cc3F)ccnc2cc1OCCCN1CCOCC1 [Foretinib] (partner 0.25 µM)
Summary of the method: (§1)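 After 5 days of treatment, lung cancer cells in 1536-well plates were fixed and stained in a single step (final 0.05% Triton X-100, 1% formaldehyde, 1 ug/ml Hoechst) and their nuclei counted on 4× images. Treatment had been applied by pin tool the day after seeding as one drug alone or as a fixed anchor-drug dose with five library-drug doses (not always all listed) in √10 steps. Relative viability is the nuclei count of treated wells divided by that of vehicle wells, and values are medians of duplicate plates.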

[2] = compound: C1CNCCC1C2=CC(=NN2)C3=CC=NC=C3 + C[C@]1(O)C[C@@H](c2nc(-c3ccc4ccc(-c5ccccc5)nc4c3)c3c(N)nccn32)C1 [Linsitinib] (partner 1 µM)
Summary of the method: as §1

[3] = compound: C[C@@H](N)c1ccc(C(=O)Nc2ccnc3[nH]ccc23)cc1 + CC1(C)CCC(c2ccc(Cl)cc2)=C(CN2CCN(c3ccc(C(=O)NS(=O)(=O)c4ccc(N[C@H](CCN5CCOCC5)CSc5ccccc5)c(S(=O)(=O)C(F)(F)F)c4)cc3)CC2)C1 [Navitoclax] (partner 0.5 µM)
Summary of the method: as §1

[4] = compound: O[C@H]1CC[C@H](Nc2ncc3nc(Nc4c(F)cc(F)cc4F)n([C@H]4CCOC4)c3n2)CC1 [Tanzisertib] + Cc1nc(NC(=O)N2CCC[C@H]2C(N)=O)sc1-c1ccnc(C(C)(C)C(F)(F)F)c1 [Alpelisib] (partner 2 µM)
Summary of the method: as §1

| Cell Line | relative viability ([1]; first compound 0.08 µM) | relative viability ([1]; first compound 0.253 µM) | relative viability ([1]; first compound 0.8 µM) | relative viability ([1]; first compound 2.53 µM) | relative viability ([1]; first compound 8 µM) | relative viability ([2]; first compound 0.08 µM) | relative viability ([2]; first compound 0.8 µM) | relative viability ([2]; first compound 2.53 µM) | relative viability ([2]; first compound 8 µM) | relative viability ([3]; first compound 0.04 µM) | relative viability ([3]; first compound 0.1265 µM) | relative viability ([3]; first compound 0.4 µM) | relative viability ([3]; first compound 4 µM) | relative viability ([4]; first compound 0.08 µM) | relative viability ([4]; first compound 0.253 µM) | relative viability ([4]; first compound 0.8 µM) | relative viability ([4]; first compound 2.53 µM) | relative viability ([4]; first compound 8 µM) | relative viability ([3]; first compound 1.265 µM) |
| --- | --- | --- | --- | --- | --- | --- | --- | --- | --- | --- | --- | --- | --- | --- | --- | --- | --- | --- | --- |
| NCI-H23 | 1.01 | 1.07 | 0.996 | 0.952 | 1.02 | 0.5 | 0.642 | 0.675 | 0.644 | 1.06 | 0.963 | 0.986 | 0.582 | 0.63 | 0.617 | 0.705 | 0.747 | 0.718 |  |
| NCI-H1651 | 0.875 | 0.951 | 0.794 | 0.996 | 0.539 | 0.923 | 0.977 | 0.966 | 1.14 | 1.07 | 1 | 1.11 | 1.11 | 1.17 | 0.934 | 1.01 | 0.988 | 0.817 | 1.26 |
| NCI-H1975 | 0.968 | 0.968 | 1.03 | 0.946 | 0.841 | 0.952 | 1.14 | 0.917 | 0.97 | 1.13 | 0.978 | 0.995 | 0.434 | 0.676 | 0.715 | 0.719 | 0.653 | 0.585 | 0.652 |
| COR-L23 | 1.01 | 0.966 | 1 | 1.13 | 1 | 0.931 | 1.05 | 0.984 | 0.918 | 1.03 | 1.16 | 0.886 | 0.481 | 0.784 | 0.759 | 0.743 | 0.807 | 0.793 | 0.766 |
| LOU-NH91 | 0.914 | 0.946 | 0.903 | 0.87 | 0.639 | 0.85 | 1 | 1.14 | 0.962 | 0.61 | 0.679 | 0.602 | 0.615 | 0.755 | 0.706 | 0.716 | 0.694 | 0.549 | 0.615 |
| NCI-H441 | 0.488 | 0.797 | 1.03 | 0.994 | 0.752 | 0.65 | 0.361 | 0.753 | 0.497 | 0.571 | 0.546 | 0.477 | 0.571 | 0.925 | 0.69 | 0.674 | 0.713 | 0.635 | 0.624 |
| NCI-H647 | 1.23 | 1.25 | 1.11 | 1.29 | 1.12 | 1.28 | 1.45 | 1.38 | 1.09 | 0.978 | 1.19 | 0.942 | 0.762 | 1.12 | 1.31 | 1.16 | 1.26 | 1.08 |  |
| NCI-H1915 | 1.12 | 1.1 | 1.11 | 1.11 | 1.16 | 1.05 | 1.14 | 1.1 | 1.11 | 0.755 | 0.792 | 0.817 | 0.723 | 1.15 | 1.05 | 1.06 | 1.04 | 1.04 |  |
